The compounds below were run against T1, cDNA, FLJ78895, highly similar to 3-oxo-5-alpha-steroid 4-dehydrogenase 1 (Homo sapiens, UniProt B7Z4L2) (assay: 5α-Reductase Activity Assay). Settings: pH 6.5; 37 °C.
T1 sequence (B7Z4L2 whole entry): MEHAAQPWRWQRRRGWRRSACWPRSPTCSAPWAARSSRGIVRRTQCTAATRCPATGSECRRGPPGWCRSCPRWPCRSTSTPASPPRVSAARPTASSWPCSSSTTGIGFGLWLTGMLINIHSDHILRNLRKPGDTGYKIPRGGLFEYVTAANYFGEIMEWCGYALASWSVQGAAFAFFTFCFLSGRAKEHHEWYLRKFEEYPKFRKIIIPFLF
Method: The reaction mixture contained a final volume of 1 mL: 1 mM dithiothreitol, sodium phosphate buffer 40 mM, at pH 6.5 for human prostate, 2 mM NADPH, 2 nM [1,2,6,7-3H]T [Cabeza et al., Steroids 60:630-5]. The reaction in duplicate was started when it was added to the enzymatic fraction (500 μg protein in a volume of 80 μL) incubated at 37°C for 60 min [Hirosumi et al., J. Steroid Biochem. Mol. Biol., 52:357-63] and stopped by mixing with 1 mL of dichloromethane; this was considered as the end point. Incubation without tissue was used as a control. The mixture (incubation medium/dichloromethane) was agitated on a vortex for 1 min and the dichloromethane phase was separated and placed in another tube. This procedure was repeated four more times. The dichloromethane extract was evaporated to dryness under a nitrogen stream and suspended in […] that was spotted on high-performance thin layer chromatography (HPTLC) Keiselgel 60 F254 plates. T and DHT were used as carriers, and were applied in different lanes on both lateral sides of the plates (T, T + DHT, and DHT). The plates were developed in chloroform-acetone, 9:1, and were air-dried; the chromatography was repeated twice more. The steroid carriers were detected using phosphomolybdic acid reagent (DHT) and with an ultraviolet (UV) lamp (254 nm) (T). After the plates were segmented into pieces of 1 cm each, these were cut off and the strips soaked in 5 mL of Ultima Gold (Packard). The radioactivity was determined in a scintillation counter (Packard Tri-Carb 2100 TR). The radioactivity content in the segment corresponding to T and DHT carriers was identified. Radioactivity with identical chromatographic behavior to the DHT standard was considered as the DHT transformation.

| IC50 | Compound |
| --- | --- |
| 22 nM | CC(=O)O[C@]1(C(C)=O)CCC2C3C(CC[C@@]21C)[C@@]1(C)CCC(=O)C=C1[C@H]1O[C@@H]31 (stereo partly drawn) [3,20-Dioxo-6,7-epoxypregn-4-ene-7α-yl acetate (8)] |
| 19 nM | CC(=O)O[C@]1(C(C)=O)CCC2C3C=C(Cl)C4=CC(=O)CC[C@]4(C)C3CC[C@@]21C (stereo partly drawn) [6-Chloro-3,20-dioxopregna-4,6-diene-17α-yl acetate (9)] |
| 8.5 nM | CC(C)(C)NC(=O)C1CCC2C3CCC4NC(=O)C=C[C@]4(C)C3CC[C@]12C (stereo not given in full) [Finasteride (3)] |

| Compound | IC50 |
| --- | --- |
| CC(=O)O[C@]1(C(C)=O)CCC2C3C=CC4=CC(=O)CC[C@]4(C)C3CC[C@@]21C (stereo partly drawn) [3,20-Dioxopregna-4,6-dien-17α-yl acetate (7)] | 70 nM |
| CC(=O)O[C@]1(C(C)=O)CCC2C3CCC4=CC(=O)CC[C@]4(C)C3CC[C@@]21C (stereo partly drawn) [17α-Acetoxyprogesterone (6)] | 10 nM |

Source: BindingDB's records for doi:10.3109/14756360903179401 (Universidad Nacional Autonoma De Mexico, 2010)
